Experimental data: PMC9021288 (Nature Communications, 2022)
Values joined by “and” are separate entries in the source; they are usually repeats but may differ in a detail not shown here. Equal entries are not always repeated.

Experiments:
[1] = system: P. falciparum NF54-HGL gametocytes; experiment: Gametocyte viability assay (72 h, luminescence); assay type: cell-based, Plasmodium falciparum
Procedure: Gametocyte viability assays on NF54-HGL parasites were performed using an adapted high-throughput protocol as previously described[15],[64]. In short, asexual blood-stage parasite cultures were set up at 1% parasitemia in a semi-automated shaker system at 5% hematocrit. From day four until day eight or nine, parasites were treated with 50 mM N-acetyl glucosamine to eliminate all asexual blood-stage parasites. Subsequently, gametocytes were isolated by a Percoll density gradient centrifugation. At day 11, gametocytes were seeded (5,000 per well) in 30 µl in white 384-well plates containing 30 µl of compounds diluted in medium (0.1% DMSO). After a 72-h incubation, 30 µl of ONE-Glo reagent (Promega) was added according to manufacturer’s protocol and luminescence was quantified using the BioTek Synergy 2 Plate reader. Values were normalized to DMSO- and epoxomicin or dihydroartemisinin-treated controls.

[2] = system: P. falciparum Pf3D7^0087/N9; experiment: Single dose in vivo efficacy in humanized NSG mice; design: species or system Plasmodium falciparum
Procedure: The effect of pantothenamides on P. falciparum Pf3D7^0087/N9 [66] in vivo was assessed in female NSG mice (NODscidIL2Rγ^null) at the Swiss Tropical and Public Health Institute (Basel, Switzerland) as described previously (Supplementary Table 30)[15],[67]. Briefly, humanized mice were engrafted daily with human erythrocyte suspensions from days -11 to day 6. […] On day 4, groups of n = 2 mice were treated with a single dose pantothenamides or chloroquine (50 mg/kg) by oral gavage. […] Serial dilutions were prepared in the same solvent to concentrations 50 times higher than the corresponding CAL and QC concentrations. The concentrations were calculated under consideration of purity and salt factor. The spiking of the CAL and QC sample were performed at room temperature.

[3] = Blood concentration and PK in infected NSG mice after single oral dose; assay type: in vivo, mouse; settings: for concentration in blood: per mouse
Procedure: The effect of pantothenamides on P. falciparum Pf3D7^0087/N9 [66] in vivo was assessed in female NSG mice (NODscidIL2Rγ^null) at the Swiss Tropical and Public Health Institute (Basel, Switzerland) as described previously (Supplementary Table 30)[15],[67]. Briefly, humanized mice were engrafted daily with human erythrocyte suspensions from days -11 to day 6. After 11 days (day 0), mice were injected intravenously with 3×10^7 infected RBCs in a volume of 0.1 ml. On day 4, groups of n = 2 mice were treated with a single dose pantothenamides or chloroquine (50 mg/kg) by oral gavage. The hematocrit of all dosed mice and an untreated control group (n = 4 mice) was determined by fluorescence-activated cell sorting and parasitemia was analyzed by microscopy on >10,000 RBCs as described before. Samples to quantify compound metabolites were collected and prepared at different time points (1, 2, 4, 6, and 24 h after treatment) for each mouse by mixing 20 µl of whole blood with 20 µl of Milli-Q, followed by immediate freezing of samples on dry ice. […] Serial dilutions were prepared in the same solvent to concentrations 50 times higher than the corresponding CAL and QC concentrations. The concentrations were calculated under consideration of purity and salt factor. The spiking of the CAL and QC sample were performed at room temperature. The eight calibration levels were 5.00, 10.0, 50.0, 100, 500, 1000, 3750, and 5000 ng/mL and three QC levels 15.0, 100, and 3750 ng/mL were analyzed in duplicate, together with the study samples.
For the sample precipitation, to an aliquot of 10 µL mouse blood/water (1/1) study sample, 20 µL of acetonitrile containing the internal standard MMV1542001 at a concentration of 100 ng/mL was added. After vortex mixing, the samples were centrifuged for 10 min at 50,000 g at 8 °C. Subsequently, an aliquot of 20 µL of the supernatant was transferred to an autosampler vial and an aliquot of 5 µL was injected onto the LC-MS/MS system.
The samples were handled by an autosampler CTC PAL (CTC Analytics AG, Zwingen, Switzerland) set at 8 °C. The chromatography column used was a YMC Hydrosphere C18, 2.1 × 33 mm, 3 µm (YMC Co. Ltd., Kyoto, Japan), kept at room temperature. The aqueous mobile phase consisted of water containing 0.1 % formic acid, whereas the organic mobile phase consisted of acetonitrile containing 0.1 % formic acid, pumped by HPLC pump from Agilent 1200 series (Agilent Technologies Inc, Santa Clara, CA, USA). The HPLC gradient was as follows: 95% phase A, 5% phase B for 0.20 min, followed by transition to 5% phase A, 95% phase B in 1 min, 2 min at these concentrations, and a subsequent increase to 95% phase A, 5% phase B in 0.05 min which is kept for the remaining 0.75 min.
The detection of MMV693183 was performed using a TSQ Access mass spectrometer (Thermo Fisher Scientific, San Jose, CA, USA) by selected reaction monitoring. The ion source was heated electrospray ionization, using a negative polarity. Following parameters were used: Voltage 2500 [V], Vaporizer temperature 350 [°C], Sheath gas 60 [au], Auxiliary gas 5 [au], Capillary temperature 350 [°C] and Collision gas pressure 1.0 [mTorr]. […] The transition used for the internal standard was: parent ion 325.030 m/z—daughter ion 195.000 m/z.
The concentration of the analyte was calculated using the internal standardization method. The area ratio of analyte to internal standard against the concentration of calibration samples was used for quantification. The acquisition and processing of data were performed using LCquan 2.5.6 and Xcalibur 2.0.7. Microsoft Office Excel 2007 Prof was used for calculations and statistical evaluation of data. […] The Lower Limit of Quantification was 5.00 ng/mL in […], whereas The Upper Limit of Quantification was 5000 ng/mL in mouse blood/water (1/1).

Crystal screening (XRPD) = assay type: physicochemical; settings: 36 conditions
Procedure: Crystal screening for each further characterized pantothenamide was performed by a commercial service (Crystal Pharmatech Co., Ltd.) under 36 conditions using a variety of crystallization methods, including liquid vapor diffusion, slow evaporation, slurry conversion and salt/co-crystal formation and solvents. X-ray power diffraction (XRPD) patterns were collected by Bruker X-ray powder diffractometers.

**Q.** What does the source list for `C[C@@H](CNC(=O)[C@H](O)C(C)(C)CO)NC(=O)c1cc(F)c(F)cc1F` [MMV693183]?
**A.** Sexual blood stages viability, dose-response ([1]; Log concentration (M) -7.5): 36.75 and 49.45 and 51.8; Sexual blood stages viability, dose-response ([1]; Log concentration (M) -8): 69.2 and 83.95 and 95.65; Sexual blood stages viability, dose-response ([1]; Log concentration (M) -8.5): 82.4 and 91.1 and 100.8; Sexual blood stages viability, dose-response ([1]; Log concentration (M) -9): 98.1 and 92.5 and 103.2; Sexual blood stages viability, dose-response ([1]; Log concentration (M) -9.5): 107.25 and 92.05 and 100.45; Sexual blood stages viability, dose-response ([1]; Log concentration (M) -10): 92.05 and 87.2 and 94.15; IC50 ([1]; per replicate experiment, read-out: IC50, sexual blood stages): 0.0178 µM and 0.036 µM and 0.0368 µM; Parasitemia ([2]; day 5 post infection, 50 mg/kg p.o. on day 4, per mouse, 50 mg/kg): 0.2 and 0.29; Parasitemia ([2]; day 6 post infection, per mouse): 0.03 and 0.02; Parasitemia ([2]; day 7 post infection, per mouse): 0; parasitemia outcome ([2]; single 50 mg/kg oral gavage on day 4, over three days): reduced parasitemias below detectable levels; AUC0-24h ([3]; 50 mg/kg p.o.): 33.7 µg·h/mL; Cmax ([3]; 50 mg/kg p.o.): 12.9 µg/mL; T1/2 ([3]; 50 mg/kg p.o.): 2.49 h; Tmax ([3]; 50 mg/kg p.o.): 1.50 h; concentration in blood ([3]; 1 h post treatment): 6.96 µg/mL and 16.2 µg/mL; concentration in blood ([3]; 2 h post treatment): 9.66 µg/mL and 7.3 µg/mL; concentration in blood ([3]; 4 h post treatment): 2.36 µg/mL and 1.17 µg/mL; concentration in blood ([3]; 6 h post treatment): 0.802 µg/mL and 0.376 µg/mL; concentration in blood ([3]; 24 h post treatment): 0.01 µg/mL; Crystalline (Crystal screening (XRPD)): Yes
